Measurements taken from patent US20110039770A1, “INHIBITORS OF PROTEIN KINASE C ISOFORMS AND USES THEREOF” (PHARMAGAP INC., priority 2005, published 2011).
Read-outs that look alike come from different tables or passages of the source. Where a SMILES comes first, the peptide text is derived from it. The star is where a group is joined. PNA(A) = NCCN(CC(=O)*)C(=O)Cn1cnc2c(N)ncnc21

What was measured:
[1] = Repeat-dose toxicity study in mice; assay type: in vivo, mouse; details: 72-hour dosing schedule up to 75 days, subcutaneous
Description: A dosage of 25 micrograms per mouse was provided to a cohort of mice by subcutaneous injection. No physiological, behavioral or external signs of toxicity were observed.

[2] = tested on: IMR-32 human neuroblastoma cells; details: IMR-32
Method: The ability of compounds PKI 1, PKI 2 and PKI 3 to inhibit cancer cell proliferation was tested in vitro using the human neuroblastoma cell line IMR-32. Monolayer cell cultures were trypsinized and the test compound was added at the doses indicated in Table 24 and internalized by pinocytic endocytosis using Influx TM pinocytic cell-loading reagent, a kit from Molecular Probes (Eugene, Oreg.) following the manufacturer's recommendations. The indicated doses refer to the concentration in the loading medium, which was used on 1×10^6 cells in a 10 μl volume, i.e. contained 10 μg to 100 ug of test compound that provides […] per cell. […] The cells were treated on day 0 of the experiment. The cells loaded with test compound were cultured in 96 well plates (5,000 cells in 100 μl per well), and the proliferation was monitored over 3 consecutive days. The increase in cell population was quantified using a Hoechst reagent-based assay (modified from Rao and Otto, 1992, Analytical Biochem. 207:186-192) that measures the total DNA of the population. Fluorescence was measured using a Millipore CytoFluor 2350 plate reader (excitation at 360 nm and emission at 460 nm). The measurements were obtained as relative fluorescence intensity, a value that is directly correlated to the total number of cells. Data are expressed as a percentage of matching controls that were supplemented with culture medium alone.
The ability of the compound TIM 9 to inhibit cancer cell proliferation was tested in vitro using the human neuroblastoma cell line IMR-32 and following the general protocol described in Example 14.
The ability of the compound TIM 11 to inhibit IMR-32 cancer cell proliferation was tested in vitro following the general protocol described in Example 14.
The ability of the compound TIM 10 to inhibit cancer cell proliferation was tested in vitro using the human neuroblastoma IMR-32 cell line and following the general protocol described in Example 14.

[3] = tested on: CCD-16Lu normal immortalized human lung fibroblasts; test: Proliferation of normal lung cells (protocol of Example 14); assay type: cell-based
[4] = tested on: H661 human non-small cell lung cancer cells; test: Inhibition of NSCLC cell proliferation (protocol of Example 14); assay type: cell-based; details: for % Cell Survival (±S.D.): H661
Method: The ability of compounds PKI 1, PKI 2 and PKI 3 to inhibit cancer cell proliferation was tested in vitro using the human neuroblastoma cell line IMR-32. Monolayer cell cultures were trypsinized and the test compound was added at the doses indicated in Table 24 and internalized by pinocytic endocytosis using Influx TM pinocytic cell-loading reagent, a kit from Molecular Probes (Eugene, Oreg.) following the manufacturer's recommendations. The indicated doses refer to the concentration in the loading medium, which was used on 1×10^6 cells in a 10 μl volume, i.e. contained 10 μg to 100 ug of test compound that provides […] per cell. It is worth noting, however, that only a small proportion of the compound is internalized using this technique, so the actual dose may be lower. The cells were treated on day 0 of the experiment. The cells loaded with test compound were cultured in 96 well plates (5,000 cells in 100 μl per well), and the proliferation was monitored over 3 consecutive days. The increase in cell population was quantified using a Hoechst reagent-based assay (modified from Rao and Otto, 1992, Analytical Biochem. 207:186-192) that measures the total DNA of the population. Fluorescence was measured using a Millipore CytoFluor 2350 plate reader (excitation at 360 nm and emission at 460 nm). The measurements were obtained as relative fluorescence intensity, a value that is directly correlated to the total number of cells. Data are expressed as a percentage of matching controls that were supplemented with culture medium alone.
The ability of the compound TIM 10 to inhibit cancer cell proliferation was tested in vitro using the human non-small cell lung cancer cell line H661 and following the general protocol described in Example 14. The effect of compound TIM 10 on CCD-16Lu cells (normal immortalized human lung fibroblasts) was also assessed by the same protocol. The results after 24, 48 and 72 hours of treatment are shown in Table 31 (H661 cell line) and FIG. 24 (A: CCD-16LU cell line, and B: H661 cell line). The change in dose effect at 48 and 72 hrs in normal cells (see FIG. 24A) for lower doses of compound TIM 10 was interpreted as being due to the probable intracellular degradation of compound TIM 10 which would reduce the level of compound TIM 10 to doses that no longer affect growth. In H661 cells, however, at doses of 1 mM compound TIM 10 was not degraded and its sub localization was not altered as assessed by western blot and immunocytochemistry imaging.

CC[C@H](C)[C@H](NC(=O)[C@H](CO)NC(=O)[C@@H](NC(=O)CNC(=O)[C@@H](NC(=O)[C@H](CC(C)C)NC(=O)[C@H](CC(N)=O)NC(=O)[C@H](CCC(N)=O)NC(=O)[C@H](C)NC(=O)[C@H](CC(=O)O)NC(=O)[C@H](CCCCN)NC(=O)CNC(=O)CNC(=O)CNC(=O)CNC(=O)CNC(=O)CNC(=O)CNC(=O)[C@H](CC(C)C)NC(=O)[C@H](CCCNC(=N)N)NC(=O)[C@H](Cc1ccccc1)NC(=O)[C@H](CCCCNC(=O)CN(CCN)C(=O)Cn1cnc2c(N)ncnc21)NC(=O)[C@H](CCCNC(=N)N)NC(=O)[C@H](CCCNC(=N)N)NC(=O)[C@H](Cc1ccccc1)NC(C)=O)[C@@H](C)CC)[C@@H](C)CC)C(N)=O [TIM 10] (Ac-FRRK(PNA(A))FRLGGGGGGGKDAQNLIGISI-NH2)
toxicity on repeated dosing [1]: no evidence of toxicity | toxicity on repeated dosing ([1]; listed as PhGalpha1): No evidence of toxicity | % Cell Survival ([2]; 100 μM, 24 Hours): 93% | % Cell Survival ([2]; 100 μM, 48 Hours): 80% | % Cell Survival ([2]; 100 μM, 72 Hours): 77% | % Cell Survival ([2]; 500 μM, 24 Hours): 91% | % Cell Survival ([2]; 500 μM, 48 Hours): 76% | % Cell Survival ([2]; 500 μM, 72 Hours): 73% | % Cell Survival ([2]; 1 mM, 24 Hours): 90% | % Cell Survival ([2]; 1 mM, 48 Hours): 77% | % Cell Survival ([2]; 1 mM, 72 Hours): 70% | % Cell Survival ([2]; 5 mM, 24 Hours): 81% | % Cell Survival ([2]; 5 mM, 48 Hours): 76% | % Cell Survival ([2]; 5 mM, 72 Hours): 66% | effect on normal lung cells relative to H661 [3]: less affected | % Cell Survival (±S.D.) ([4]; 100 μM, 24 Hours): 97 (6) % | % Cell Survival (±S.D.) ([4]; 100 μM, 48 Hours): 85 (3) % | % Cell Survival (±S.D.) ([4]; 100 μM, 72 Hours): 51 (5) % | % Cell Survival (±S.D.) ([4]; 500 μM, 24 Hours): 91 (5) % | % Cell Survival (±S.D.) ([4]; 500 μM, 48 Hours): 82 (2) % | % Cell Survival (±S.D.) ([4]; 500 μM, 72 Hours): 49 (7) % | % Cell Survival (±S.D.) ([4]; 1 mM, 24 Hours): 85 (9) % | % Cell Survival (±S.D.) ([4]; 1 mM, 48 Hours): 82 (2) % | % Cell Survival (±S.D.) ([4]; 1 mM, 72 Hours): 45 (6) % | % Cell Survival (±S.D.) ([4]; 5 mM, 24 Hours): 83 (7) % | % Cell Survival (±S.D.) ([4]; 5 mM, 48 Hours): 79 (2) % | % Cell Survival (±S.D.) ([4]; 5 mM, 72 Hours): 43 (5) % | intracellular degradation ([4]; H661 cells, 1 mM, western blot and immunocytochemistry): not degraded
